According to ChEMBL document CHEMBL4043168, “The design and SAR of a novel series of 2-aminopyridine based LRRK2 inhibitors” (Bioorg Med Chem Lett, 2017):

Assays:
[1] = target: Interferon-induced, double-stranded RNA-activated protein kinase (Homo sapiens) (UniProt P19525); assay: Inhibition of PKR activation Loop (IGDFGLVTSLKNDGKR) in human PBMC at 1 uM
[2] = target: MAP kinase-activated protein kinase 3 (Homo sapiens) (UniProt Q16644); assay: Inhibition of MAPKAPK3 ATP binding site (QVLGLGVNGKVLECFHR) in human PBMC at 1 uM
Chain of MAP kinase-activated protein kinase 3 (Homo sapiens) (Q16644 whole entry, looked up): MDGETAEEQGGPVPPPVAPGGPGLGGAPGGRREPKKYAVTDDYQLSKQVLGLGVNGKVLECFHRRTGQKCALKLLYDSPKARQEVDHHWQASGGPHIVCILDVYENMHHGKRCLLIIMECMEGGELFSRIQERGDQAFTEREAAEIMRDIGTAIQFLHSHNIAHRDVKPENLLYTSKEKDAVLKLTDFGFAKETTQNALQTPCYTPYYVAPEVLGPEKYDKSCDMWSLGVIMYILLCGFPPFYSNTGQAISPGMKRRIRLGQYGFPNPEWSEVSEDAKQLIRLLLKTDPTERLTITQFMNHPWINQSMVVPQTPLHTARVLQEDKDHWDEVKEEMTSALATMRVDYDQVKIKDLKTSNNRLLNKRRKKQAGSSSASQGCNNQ

[3] = target: Dual specificity mitogen-activated protein kinase kinase 3 (Homo sapiens) (UniProt P46734); assay: Inhibition of MAP2K3 conserved Lys2 (DVKPSNVLINK) in human PBMC at 1 uM
Chain of Dual specificity mitogen-activated protein kinase kinase 3 (Homo sapiens) (P46734 whole entry): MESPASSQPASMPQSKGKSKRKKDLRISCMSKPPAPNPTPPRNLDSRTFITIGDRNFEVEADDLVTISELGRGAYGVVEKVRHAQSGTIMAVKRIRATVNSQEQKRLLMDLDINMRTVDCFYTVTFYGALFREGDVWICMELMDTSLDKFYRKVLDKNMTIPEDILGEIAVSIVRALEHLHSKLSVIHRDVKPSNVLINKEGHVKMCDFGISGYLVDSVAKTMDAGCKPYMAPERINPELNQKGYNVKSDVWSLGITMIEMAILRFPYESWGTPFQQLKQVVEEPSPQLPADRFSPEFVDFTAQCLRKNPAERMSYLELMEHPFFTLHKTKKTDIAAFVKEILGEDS

[4] = target: Mitogen-activated protein kinase 12 (Homo sapiens) (UniProt P53778); assay: Inhibition of p38g conserved Lys2 (DLKPGNLAVNEDCELK) in human PBMC at 0.1 uM
Chain of Mitogen-activated protein kinase 12 (Homo sapiens) (P53778 whole entry): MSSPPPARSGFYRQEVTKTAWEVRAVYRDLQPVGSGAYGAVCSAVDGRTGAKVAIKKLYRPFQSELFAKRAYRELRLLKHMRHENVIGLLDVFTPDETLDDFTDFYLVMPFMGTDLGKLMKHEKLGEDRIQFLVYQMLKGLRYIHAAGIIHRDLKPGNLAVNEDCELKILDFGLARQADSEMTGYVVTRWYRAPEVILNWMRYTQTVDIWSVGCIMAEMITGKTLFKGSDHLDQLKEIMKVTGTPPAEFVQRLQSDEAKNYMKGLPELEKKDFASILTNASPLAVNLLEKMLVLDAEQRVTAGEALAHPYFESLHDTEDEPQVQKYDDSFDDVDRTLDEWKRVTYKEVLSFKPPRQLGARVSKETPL

[5] = target: Cyclin-dependent kinase 5 (Homo sapiens) (UniProt Q00535); assay: Inhibition of CDK5 labeling at conserved Lys2 (DLKPQNLLINR) in human PBMC at 0.1 uM
Chain of Cyclin-dependent kinase 5 (Homo sapiens) (Q00535 whole entry, looked up): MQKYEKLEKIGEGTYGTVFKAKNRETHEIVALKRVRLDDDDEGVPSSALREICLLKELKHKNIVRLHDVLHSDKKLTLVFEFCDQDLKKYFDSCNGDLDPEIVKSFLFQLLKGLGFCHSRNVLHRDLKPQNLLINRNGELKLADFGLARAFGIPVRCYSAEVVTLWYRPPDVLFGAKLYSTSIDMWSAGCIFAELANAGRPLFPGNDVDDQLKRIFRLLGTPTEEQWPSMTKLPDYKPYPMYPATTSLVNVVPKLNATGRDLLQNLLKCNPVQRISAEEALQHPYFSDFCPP

[6] = Inhibition of GCK conserved Lys2 (DIKGANLLLTLQGDVK) in human PBMC at 1 uM
[7] = target: T1, Tyrosine-protein kinase JAK3 (Homo sapiens) (UniProt P52333); assay: Inhibition of JAK3 domain2 conserved Lys1 (YDPLGDNTGALVAVKQLQHSGPDQQR) in human PBMC at 1 uM
T1 sequence (whole entry): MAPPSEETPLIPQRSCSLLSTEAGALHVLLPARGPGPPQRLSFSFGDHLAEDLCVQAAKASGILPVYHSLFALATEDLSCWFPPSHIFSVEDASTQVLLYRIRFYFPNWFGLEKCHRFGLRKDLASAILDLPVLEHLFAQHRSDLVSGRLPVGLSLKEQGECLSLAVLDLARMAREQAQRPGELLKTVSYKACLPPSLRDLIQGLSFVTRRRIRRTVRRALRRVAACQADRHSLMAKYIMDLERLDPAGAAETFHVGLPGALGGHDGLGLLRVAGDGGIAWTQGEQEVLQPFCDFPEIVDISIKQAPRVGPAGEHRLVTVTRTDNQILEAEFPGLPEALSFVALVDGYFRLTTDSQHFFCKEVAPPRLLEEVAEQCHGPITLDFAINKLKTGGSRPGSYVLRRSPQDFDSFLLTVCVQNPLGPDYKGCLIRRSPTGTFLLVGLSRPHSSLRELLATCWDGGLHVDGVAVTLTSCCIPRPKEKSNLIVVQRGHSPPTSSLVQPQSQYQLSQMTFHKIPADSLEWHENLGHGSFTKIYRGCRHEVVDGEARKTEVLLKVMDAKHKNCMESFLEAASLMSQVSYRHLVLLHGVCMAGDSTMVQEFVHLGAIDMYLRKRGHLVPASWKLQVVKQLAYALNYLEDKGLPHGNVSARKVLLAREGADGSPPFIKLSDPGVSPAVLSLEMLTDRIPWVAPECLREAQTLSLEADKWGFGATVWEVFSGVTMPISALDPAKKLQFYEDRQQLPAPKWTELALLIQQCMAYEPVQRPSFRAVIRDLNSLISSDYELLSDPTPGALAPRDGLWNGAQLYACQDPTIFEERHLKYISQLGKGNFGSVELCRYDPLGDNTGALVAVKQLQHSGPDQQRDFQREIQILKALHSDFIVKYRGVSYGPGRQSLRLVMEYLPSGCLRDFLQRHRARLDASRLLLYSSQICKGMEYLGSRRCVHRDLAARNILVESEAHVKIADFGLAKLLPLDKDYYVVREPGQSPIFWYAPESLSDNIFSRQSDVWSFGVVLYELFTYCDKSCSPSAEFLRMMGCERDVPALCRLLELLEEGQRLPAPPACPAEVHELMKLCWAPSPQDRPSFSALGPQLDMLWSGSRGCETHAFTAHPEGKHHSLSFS

[8] = target: T2, Serine/threonine-protein kinase LATS1 (Homo sapiens) (UniProt O95835); assay: Inhibition of LATS1 conserved Lys1 (ALYATKTLR) in human PBMC at 1 uM
T2 sequence (whole entry): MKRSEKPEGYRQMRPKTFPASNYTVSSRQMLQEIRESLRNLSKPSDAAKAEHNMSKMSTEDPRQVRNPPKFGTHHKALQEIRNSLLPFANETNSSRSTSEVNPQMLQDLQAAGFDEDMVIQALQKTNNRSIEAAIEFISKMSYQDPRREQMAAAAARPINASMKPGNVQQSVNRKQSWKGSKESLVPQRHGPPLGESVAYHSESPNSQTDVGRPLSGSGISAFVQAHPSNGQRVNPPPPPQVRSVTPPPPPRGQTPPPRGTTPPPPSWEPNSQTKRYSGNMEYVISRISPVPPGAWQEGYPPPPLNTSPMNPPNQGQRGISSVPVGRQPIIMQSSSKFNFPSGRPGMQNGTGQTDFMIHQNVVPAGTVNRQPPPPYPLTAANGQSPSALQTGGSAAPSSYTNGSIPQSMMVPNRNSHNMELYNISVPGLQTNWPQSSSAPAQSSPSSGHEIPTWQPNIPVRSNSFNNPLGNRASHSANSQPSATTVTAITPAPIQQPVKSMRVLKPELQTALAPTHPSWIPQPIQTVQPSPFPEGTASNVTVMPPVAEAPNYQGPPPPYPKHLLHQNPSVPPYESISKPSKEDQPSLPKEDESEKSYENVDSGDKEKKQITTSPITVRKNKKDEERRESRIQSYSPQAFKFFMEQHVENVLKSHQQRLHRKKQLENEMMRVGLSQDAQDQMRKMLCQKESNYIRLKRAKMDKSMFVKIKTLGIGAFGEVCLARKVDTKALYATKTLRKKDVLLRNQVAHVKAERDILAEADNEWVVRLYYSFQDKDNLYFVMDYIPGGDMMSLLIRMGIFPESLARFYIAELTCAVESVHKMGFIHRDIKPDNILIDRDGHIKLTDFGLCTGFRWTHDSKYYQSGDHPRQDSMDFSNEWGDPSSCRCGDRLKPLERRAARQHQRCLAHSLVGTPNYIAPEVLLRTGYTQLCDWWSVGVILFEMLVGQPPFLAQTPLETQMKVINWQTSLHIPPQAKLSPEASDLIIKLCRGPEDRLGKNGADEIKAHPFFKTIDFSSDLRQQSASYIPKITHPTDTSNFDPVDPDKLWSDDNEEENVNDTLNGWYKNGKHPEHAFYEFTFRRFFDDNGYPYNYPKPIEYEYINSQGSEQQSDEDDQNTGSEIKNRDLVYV

[9] = target: Tyrosine-protein kinase JAK1 (Homo sapiens) (UniProt P23458); assay: Inhibition of JAK1 domain1 (QLASALSYLEDKDLVHGNVCTKNLLLAR) in human PBMC at 0.1 uM
Chain of Tyrosine-protein kinase JAK1 (Homo sapiens) (P23458 whole entry, the tested form may be a part): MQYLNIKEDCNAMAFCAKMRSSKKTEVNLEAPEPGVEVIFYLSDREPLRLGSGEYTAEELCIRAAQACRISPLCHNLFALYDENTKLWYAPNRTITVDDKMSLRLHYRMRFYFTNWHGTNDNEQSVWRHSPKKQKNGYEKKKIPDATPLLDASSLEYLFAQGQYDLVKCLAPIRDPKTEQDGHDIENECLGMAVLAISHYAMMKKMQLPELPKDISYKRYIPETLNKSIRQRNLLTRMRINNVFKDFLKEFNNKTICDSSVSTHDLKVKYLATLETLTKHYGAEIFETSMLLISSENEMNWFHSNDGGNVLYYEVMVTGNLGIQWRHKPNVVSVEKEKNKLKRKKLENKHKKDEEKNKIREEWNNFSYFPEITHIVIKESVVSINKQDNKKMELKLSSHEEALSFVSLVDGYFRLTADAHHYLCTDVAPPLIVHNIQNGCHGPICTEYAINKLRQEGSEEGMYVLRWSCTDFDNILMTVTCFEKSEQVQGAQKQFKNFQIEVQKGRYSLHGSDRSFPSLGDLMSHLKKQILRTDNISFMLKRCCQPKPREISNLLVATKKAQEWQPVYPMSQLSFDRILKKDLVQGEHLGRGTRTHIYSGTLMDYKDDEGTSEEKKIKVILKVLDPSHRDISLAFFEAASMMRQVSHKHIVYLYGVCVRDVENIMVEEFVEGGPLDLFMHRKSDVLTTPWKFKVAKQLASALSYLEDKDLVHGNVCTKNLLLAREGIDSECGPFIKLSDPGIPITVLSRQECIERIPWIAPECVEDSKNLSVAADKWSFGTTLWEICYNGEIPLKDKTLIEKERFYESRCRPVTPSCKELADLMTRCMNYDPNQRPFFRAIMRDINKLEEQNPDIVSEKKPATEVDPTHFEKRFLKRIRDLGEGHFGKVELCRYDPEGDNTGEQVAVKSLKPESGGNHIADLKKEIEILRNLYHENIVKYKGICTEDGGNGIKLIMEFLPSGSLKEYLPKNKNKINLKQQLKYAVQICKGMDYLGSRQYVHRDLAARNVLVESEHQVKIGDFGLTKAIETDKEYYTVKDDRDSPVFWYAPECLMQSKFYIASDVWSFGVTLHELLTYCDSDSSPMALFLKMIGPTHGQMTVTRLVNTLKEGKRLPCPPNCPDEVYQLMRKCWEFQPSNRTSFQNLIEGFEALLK

[10] = target: Tyrosine-protein kinase BTK (Homo sapiens) (UniProt Q06187); assay: Inhibition of BTK labeling at activation Loop (YVLDDEYTSSVGSKFPVR) in human PBMC at 1 uM
Chain of Tyrosine-protein kinase BTK (Homo sapiens) (Q06187 whole entry): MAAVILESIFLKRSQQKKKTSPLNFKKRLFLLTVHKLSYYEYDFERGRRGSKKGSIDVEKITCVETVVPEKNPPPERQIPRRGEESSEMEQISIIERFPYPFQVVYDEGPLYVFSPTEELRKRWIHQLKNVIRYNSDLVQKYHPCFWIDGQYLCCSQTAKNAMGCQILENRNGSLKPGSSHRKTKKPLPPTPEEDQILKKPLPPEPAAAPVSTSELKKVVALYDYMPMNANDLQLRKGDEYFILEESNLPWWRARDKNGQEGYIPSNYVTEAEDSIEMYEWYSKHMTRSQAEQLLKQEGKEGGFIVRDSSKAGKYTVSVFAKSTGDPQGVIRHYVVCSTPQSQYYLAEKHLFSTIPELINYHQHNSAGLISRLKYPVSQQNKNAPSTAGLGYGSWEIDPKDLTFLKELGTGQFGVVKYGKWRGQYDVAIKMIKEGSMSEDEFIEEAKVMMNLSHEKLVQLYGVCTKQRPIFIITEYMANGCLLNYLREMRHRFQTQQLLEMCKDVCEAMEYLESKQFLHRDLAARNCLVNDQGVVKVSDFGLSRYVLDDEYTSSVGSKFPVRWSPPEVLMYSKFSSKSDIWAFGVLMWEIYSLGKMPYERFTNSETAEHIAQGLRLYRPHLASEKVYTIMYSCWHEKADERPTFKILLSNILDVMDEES

Chain of Interferon-induced, double-stranded RNA-activated protein kinase (Homo sapiens) (P19525 whole entry): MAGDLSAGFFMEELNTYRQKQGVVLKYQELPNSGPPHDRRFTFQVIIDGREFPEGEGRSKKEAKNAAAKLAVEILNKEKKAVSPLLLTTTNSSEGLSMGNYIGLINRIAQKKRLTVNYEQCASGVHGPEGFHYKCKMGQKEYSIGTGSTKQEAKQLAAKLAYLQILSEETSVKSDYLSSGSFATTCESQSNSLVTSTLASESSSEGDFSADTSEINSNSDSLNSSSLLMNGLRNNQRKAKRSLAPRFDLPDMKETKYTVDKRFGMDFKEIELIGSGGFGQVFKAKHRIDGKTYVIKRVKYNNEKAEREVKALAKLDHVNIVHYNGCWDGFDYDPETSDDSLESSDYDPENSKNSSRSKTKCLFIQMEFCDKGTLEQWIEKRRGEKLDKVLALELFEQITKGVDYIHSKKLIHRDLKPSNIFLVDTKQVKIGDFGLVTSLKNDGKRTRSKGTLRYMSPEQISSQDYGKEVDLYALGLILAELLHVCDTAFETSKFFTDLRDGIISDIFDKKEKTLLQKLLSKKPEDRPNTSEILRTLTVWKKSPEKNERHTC

`CC(C)n1cc(-c2cc(-c3ccc(CN4CCOCC4)cc3)cnc2N)nn1` gave an inhibition [1] of -3.7%, an inhibition [2] of 2.5% and an inhibition [3] of -9.2%. The inhibition [4] was 26.4%, the inhibition [5] was -3.3% and the inhibition [6] was 26.2%. It also gave an inhibition [7] of -0.9%, an inhibition [8] of 30.1% and an inhibition [9] of 16.4%. The inhibition [10] was 17.4%.
